Data: ChEMBL document CHEMBL3301361, “Experimental in vitro DMPK and physicochemical data on a set of publicly disclosed compounds”
Converted amounts (≈) assume the structure as drawn.

assay: physchem; conditions: pH 7.4 buffer

SMILES	solubility thermodynamic [µM]
COc1cccc(NC(=O)Cn2cc(Nc3ncnc4cc(OC)c(OC)cc34)cn2)c1	4.4 (≈ 1.91 µg/mL)
COc1ccc(Cl)c(Nc2ncnc3cc(OCCCN4CCN(C)CC4)cc(OC(C)C)c23)n1	347 (≈ 174 µg/mL)
COc1cc(N2CCCN(C(C)=O)CC2)ccc1Nc1ncc(Cl)c(-c2cnc3ccccn23)n1	2.4 (≈ 1.18 µg/mL)
C[C@H]1CN(C(=O)OC(C)(C)C)CCN1c1ncc(OCc2ccc(S(C)(=O)=O)cc2)cn1	2.3 (≈ 1.06 µg/mL)
COC[C@H](C)Oc1cc(O[C@@H](C)Cc2ccccc2OC)cc(C(=O)Nc2ccc(C(=O)O)cn2)c1	589 (≈ 291 µg/mL)
N=C(N)c1ccc2cc(C(=O)Nc3ccc(CN)cc3)cc(Nc3ncccn3)c2c1	151 (≈ 62.3 µg/mL)
Cc1ccc2c(c1)-c1ccccc1S(=O)(=O)N2	631 (≈ 155 µg/mL)
COc1cc2c(Nc3cc(CC(=O)Nc4cccc(F)c4F)[nH]n3)ncnc2cc1OCCCN1CCC[C@H]1CO	1000 (≈ 568 µg/mL)
C[C@@H](Nc1ncnc2[nH]c(-c3ccc(O)cc3)cc12)c1ccccc1 [PKI-166]	28.8 (≈ 9.52 µg/mL)
c1ccc(CSc2ncnc3[nH]cnc23)cc1	95.5 (≈ 23.1 µg/mL)
COC[C@H](C)Oc1cc(Oc2cccc(N(C)C)c2)cc(C(=O)Nc2ccc(C(=O)O)cn2)c1	1350 (≈ 628 µg/mL)
CC1(C)Oc2ncnc(N)c2N=C1c1ccc(C23CC4CC(CC(CC(=O)O)(C4)C2)C3)cc1	79.4 (≈ 35.5 µg/mL)
C[C@@H]1CN(c2ncc(OCc3ccc(S(C)(=O)=O)cc3)cn2)[C@@H](C)CN1C(=O)OC(C)(C)C	0.9 (≈ 0.429 µg/mL)
NC(=O)Nc1sc(-c2ccc(F)cc2)cc1C(N)=O	67.6 (≈ 18.9 µg/mL)
O=C(Nc1ccc(Cl)c(Cl)c1)N1CCN(C[C@@H]2CCCN(CCCc3ccccc3)C2)CC1	144 (≈ 70.7 µg/mL)
C[C@@H]1CN(c2ncc(OCc3ccc(S(C)(=O)=O)cc3)cn2)CCN1C(=O)OC(C)(C)C	3.3 (≈ 1.53 µg/mL)
CC(C)Oc1cc(O[C@@H](C)c2ccccc2)cc(C(=O)Nc2ccc(C(=O)O)cn2)c1	89.1 (≈ 37.5 µg/mL)
COc1ccc2oc(=O)c(C(C)=O)cc2c1	49 (≈ 10.7 µg/mL)
Cc1cc(C)cc(-c2[nH]c3sc(C(C)(C)C(=O)N4C5CCC4CC5)cc3c2CCN2CCN(CC(O)CN3CCNCC3)CC2)c1 (stereo unspecified)	427 (≈ 276 µg/mL)
O=C(c1ccc(Cl)cc1)C1CCN(C(=O)c2ccccc2)CC1	29.5 (≈ 9.67 µg/mL)
O=C(NC1C2CC3CC(C2)CC1C3)[C@H]1CCCN1Cc1ccc(Cl)cc1 (stereo partly specified)	21.4 (≈ 7.98 µg/mL)
CS(=O)(=O)Cc1cc(N2CCOCC2)nc(-c2ccc3[nH]ccc3c2)n1	9.3 (≈ 3.46 µg/mL)
O=C(Nc1ccc(N2CC[S+]([O-])CC2)nc1)c1nnc(Nc2ccccc2F)o1	2.5 (≈ 1.04 µg/mL)
COc1ccc(Cl)c(Nc2ncnc3cc(OCCCN4CCN(C(C)=O)CC4)cc(OC(C)C)c23)n1	50.1 (≈ 26.5 µg/mL)

SMILES	solubility thermodynamic [µM]
Cc1cn(-c2cc(NC(=O)c3ccc(C)c(Nc4nccc(-c5cccnc5)n4)c3)cc(C(F)(F)F)c2)cn1 [NILOTINIB]	1.1 (≈ 0.582 µg/mL)
O=c1cc(-c2cccc3c2Sc2ccccc2S3)oc(N2CCOCC2)c1 [KU-55933]	7.1 (≈ 2.81 µg/mL)
O=C(c1ccccc1)C1CCN(C(=O)c2c(F)cccc2F)CC1	13.2 (≈ 4.35 µg/mL)
O=C1NCNC1(c1ccccc1)c1ccccc1 [DOXENITOIN]	316 (≈ 75.3 µg/mL)
CC(=O)N(C1=C(NCCO)C(=O)c2ccccc2C1=O)c1cccc(Br)c1	11.7 (≈ 5.02 µg/mL)
CNC(=O)[C@@H](NC(=O)[C@H](CC(C)C)[C@H](OCc1cc2ccccc2n(C)c1=O)C(=O)NO)C(C)(C)C	269 (≈ 135 µg/mL)
NC(=O)c1ccccc1NC(=O)Nc1ccc(Cl)c(Cl)c1	1.5 (≈ 0.486 µg/mL)
c1ccc(-c2nc(-c3ccccc3)c(-c3ccccc3)o2)cc1	1.9 (≈ 0.565 µg/mL)
CN(c1ccnc(Nc2cccc(S(C)(=O)=O)c2)n1)c1c(Cl)ccc2c1OCO2	3.5 (≈ 1.52 µg/mL)
O=C(O)Cc1cccc(-c2ccc(NC(=O)c3nnc(Nc4ccccc4F)o3)cc2)c1	257 (≈ 111 µg/mL)
COC(=O)N[C@H](C(=O)N1CCC[C@H]1c1nc(-c2ccc(-c3ccc(-c4c[nH]c([C@@H]5CCCN5C(=O)[C@@H](NC(=O)OC)C(C)C)n4)cc3)cc2)c[nH]1)C(C)C	10.2 (≈ 7.54 µg/mL)
COc1ccc(/C=C\c2cc(OC)c(OC)c(OC)c2)cc1NC(=O)[C@@H](N)CO [OMBRABULIN]	1510 (≈ 609 µg/mL)
COc1ccc(-c2[nH]nc3c2C(=O)c2ccccc2-3)cc1	0.3 (≈ 0.0829 µg/mL)
Cc1c(-c2ccc(O)cc2)n(Cc2ccc(OCCN3CCCCCC3)cc2)c2ccc(O)cc12 [BAZEDOXIFENE]	5.2 (≈ 2.45 µg/mL)
CC(C)(C)OC(=O)N1CCC[C@H]1C(=O)Nc1ccc(Br)cc1	23.4 (≈ 8.64 µg/mL)
CCN(C(=O)Cc1ccc(S(C)(=O)=O)cc1)C1CCN(CCC(c2ccccc2)N2CCN(c3cccc(F)c3)CC2)CC1 (stereo unspecified)	144 (≈ 89.7 µg/mL)
COc1ccc(Cl)c(Nc2ncnc3cc(OCCCN4CCOCC4)c(OC)cc23)c1	72.4 (≈ 33.2 µg/mL)
O=C(Nc1cc(Cl)cc2c1[nH]c1cnccc12)c1cccnc1	3.9 (≈ 1.26 µg/mL)
COc1ccccc1NC(=O)c1cc2ccccc2cc1O	0.9 (≈ 0.264 µg/mL)
O=C(Cc1ccc2ccccc2c1)Nc1cc(-c2ccc(Cl)cc2)n[nH]1	0.5 (≈ 0.181 µg/mL)
c1ccc(CSc2nnc(-c3ccco3)c(-c3ccco3)n2)cc1	5.2 (≈ 1.74 µg/mL)
COc1ccc2[nH]c(=O)c3c(c2c1)OC(C)(C)C=C3 [HAPLAMINE]	87.1 (≈ 22.4 µg/mL)
COc1cc2c(Nc3ccc(Cl)cc3F)ncnc2cc1OCCn1ccnn1	1.5 (≈ 0.622 µg/mL)
c1ccc(-c2cn3cccnc3n2)cc1	676 (≈ 132 µg/mL)

SMILES	solubility thermodynamic [µM]
O=C(Nc1nccs1)[C@H](CC1CCOCC1)c1ccc(S(=O)(=O)C2CC2)cc1	295 (≈ 124 µg/mL)
O=S(=O)(NCCNC/C=C/c1ccc(Br)cc1)c1cccc2cnccc12	61.7 (≈ 27.5 µg/mL)
Nc1nc(Nc2ccc(Cl)cc2)cc(-c2ccccc2)n1	2.2 (≈ 0.653 µg/mL)
Clc1ccc(-c2nnc(CNC3CC3)o2)cc1	1230 (≈ 307 µg/mL)
CNC(=O)Cc1ccc2c(=O)cc(-c3cccnc3)[nH]c2c1	457 (≈ 134 µg/mL)
CCOC(=O)Cc1csc(NC(=O)Nc2ccc(Cl)cc2)n1	2.6 (≈ 0.883 µg/mL)
CNC(=O)[C@@H](C)Oc1cccc2ncnc(Nc3ccc4c(cnn4Cc4ccccn4)c3)c12	6 (≈ 2.72 µg/mL)
Clc1ccc2c(c1)Nc1ccccc1S2	0.7 (≈ 0.164 µg/mL)
COc1ccc(Nc2ncnc3cccc(OC4CCN(C)CC4)c23)cc1Cl	87.1 (≈ 34.7 µg/mL)
O=C(c1ccc(F)cc1)C1CCN(C(=O)c2ccc(Cl)c(Cl)c2)CC1	0.8 (≈ 0.304 µg/mL)
O=C(c1ccccc1)C1CCN(C(=O)c2cccs2)CC1	79.4 (≈ 23.8 µg/mL)
N#CC1(NC(=O)[C@@H]2CCCC[C@H]2C(=O)N2CCN(c3nc(-c4ccccc4)cs3)CC2)CC1	95.5 (≈ 44.3 µg/mL)
Cc1ncc(-c2ccnc(Nc3ccc(N4CCN(S(C)(=O)=O)CC4)cc3)n2)n1C(C)C	8.9 (≈ 4.05 µg/mL)
CN(C(=O)Cc1ccc(Br)cc1)C1CCN(CCC(c2ccccc2)c2ccccc2)CC1	21.9 (≈ 11.1 µg/mL)
COc1cc2ncnc(Nc3cccc(Cl)c3F)c2cc1CN(C(C)C)[C@@H](C)C(N)=O	1 (≈ 0.446 µg/mL)
CCCSc1c(C(=O)NC2CCCCC2)cnn1C	1230 (≈ 346 µg/mL)
Nc1ccccc1NC(=O)c1ccc(C2CCN(Cc3ccc(C(=O)NC4CC4)cc3)CC2)cc1	6.6 (≈ 3.09 µg/mL)
Nc1nc2cc(Cl)ccc2n1CCCO	1320 (≈ 298 µg/mL)
C[C@H](COc1cccc2ncnc(Nc3ccc(OCc4ccccn4)c(Cl)c3)c12)N(C)C(=O)CO	14.1 (≈ 7.16 µg/mL)
CN(C)C(=O)COc1cccc2ncnc(Nc3ccc4c(cnn4Cc4ccccn4)c3)c12	10.7 (≈ 4.85 µg/mL)
Cc1ccnc(NC(c2ccccn2)c2c(C)[nH]c3ccccc23)c1 (stereo unspecified)	1.4 (≈ 0.46 µg/mL)
COc1ccc(Cn2c(CCc3c[nH]c4ccccc34)nnc2[C@@H](Cc2c[nH]c3ccccc23)NC(=O)C2CCNCC2)c(OC)c1	550 (≈ 347 µg/mL)
COCCN(C)C(=O)[C@@H](C)Oc1cccc2ncnc(Nc3ccc(Oc4ccc(C)nc4)c(C)c3)c12	11.2 (≈ 5.62 µg/mL)
COc1cccc(NC(=O)Cn2cc(Oc3ccnc4cc(OC)c(OC)cc34)cn2)c1	66.1 (≈ 28.7 µg/mL)

SMILES	solubility thermodynamic [µM]
O=C1NC(=O)C2(CCc3ccccc3C2)N1 (stereo unspecified) [TETRANTOIN]	224 (≈ 48.4 µg/mL)
NC1(c2ccc(-c3nn4cccc4cc3-c3ccccc3)cc2)CCC1	26.3 (≈ 8.93 µg/mL)
COc1cc(N2CCN(C(C)=O)CC2)ccc1Nc1ncc(Cl)c(-c2cnc3c(F)cccn23)n1	2.8 (≈ 1.39 µg/mL)
CC(C)CC(C(=O)NCC(=O)CNS(=O)(=O)c1ccccn1)c1cccc(-c2ccccc2)c1 (stereo unspecified)	1.2 (≈ 0.576 µg/mL)
O=c1c2ccccc2[nH]n1CCc1ccccc1	550 (≈ 131 µg/mL)
Cc1ccc2nc(C)c(-c3ccnc(N)n3)n2c1	457 (≈ 109 µg/mL)
Cc1ccc(C(=O)C2CCN(S(=O)(=O)c3c(C)noc3C)CC2)cc1	2.1 (≈ 0.761 µg/mL)
O=C1NCCc2c1[nH]c1ccccc21	1260 (≈ 234 µg/mL)
CS(=O)(=O)c1ccc2c(c1)cc(C(=O)O)n2Cc1ccc(Cl)c(Cl)c1	1100 (≈ 437 µg/mL)
C#CCN(Cc1ccc2nc(C)nc(O)c2c1)c1ccc(S(=O)(=O)c2ccccc2)cc1	0.1 (≈ 0.0444 µg/mL)
O=C(NCc1ccc(C(=O)NO)cc1)OCc1cccnc1	1380 (≈ 416 µg/mL)
Cc1ccccc1N(C)c1ccnc(Nc2cc(N3CCOCC3)cc(N3CCOCC3)c2)n1	30.9 (≈ 14.2 µg/mL)
O=C(O)c1cc2c(Cl)cccc2n1Cc1ccc(Cl)c(Cl)c1	66.1 (≈ 23.4 µg/mL)
c1csc(-c2n[nH]c3c2Cc2ccccc2-3)c1	0.6 (≈ 0.143 µg/mL)
O=c1cc(CN2CCOCC2)occ1OCCCCCSc1ccnc2cc(C(F)(F)F)ccc12	77.6 (≈ 39.5 µg/mL)
COCC(C)(C)Oc1cc(O[C@@H](C)Cc2ccccc2)cc(C(=O)Nc2ccc(C(=O)O)cn2)c1	190 (≈ 91.2 µg/mL)
COc1ccc(I)c(Sc2nc3c(N)ncnc3n2CCNCC(C)(C)C)c1	4 (≈ 2.05 µg/mL)
COc1ccc(CNC(=O)c2ccc(Oc3ccc(C#C[C@]4(O)CN5CCC4CC5)cc3)cc2)nc1	347 (≈ 168 µg/mL)
Nc1nnc(Cc2ccccc2)s1	1200 (≈ 230 µg/mL)
COc1cc2c(Nc3ncc(CNS(=O)(=O)c4cccc(F)c4)s3)ncnc2cc1OCCCN1CCC(CO)CC1	302 (≈ 186 µg/mL)
CS(=O)(=O)Cc1cc(N2CCOCC2)nc(-c2cnc3[nH]ccc3c2)n1	47.9 (≈ 17.9 µg/mL)
COc1ccc2c(c1)Sc1ccccc1N2	2.4 (≈ 0.55 µg/mL)
COc1ccc(C(=O)Nc2nccs2)cc1OC	132 (≈ 34.8 µg/mL)
CC(=O)N1CCC(NC(=O)c2ccc(Oc3ccc(C#C[C@]4(O)CN5CCC4CC5)cc3)cc2)CC1	646 (≈ 315 µg/mL)
